In article PMC10175918 (Communications Biology, 2023):
Where two headings read alike, the source gives them in different places.

Key:
Test in all cases: TGFα-shedding assay-based GPCR screening with chimeric Gα subunit proteins
Assay type in all cases: cell-based
348 GPCRs [1] = molecular target: T1, 348 GPCRs (Homo sapiens, UniProt Q9H244)
T1 construct: expressed in transfected cells; host or cells: HEK293A

348 GPCRs [2] = molecular target: 348 GPCRs (Homo sapiens, UniProt O95665); conditions: NTSR2 (neurotensin receptor type 2); 10µM, Favipiravir 100μM
Chain of 348 GPCRs (Homo sapiens, UniProt O95665) (O95665 whole entry): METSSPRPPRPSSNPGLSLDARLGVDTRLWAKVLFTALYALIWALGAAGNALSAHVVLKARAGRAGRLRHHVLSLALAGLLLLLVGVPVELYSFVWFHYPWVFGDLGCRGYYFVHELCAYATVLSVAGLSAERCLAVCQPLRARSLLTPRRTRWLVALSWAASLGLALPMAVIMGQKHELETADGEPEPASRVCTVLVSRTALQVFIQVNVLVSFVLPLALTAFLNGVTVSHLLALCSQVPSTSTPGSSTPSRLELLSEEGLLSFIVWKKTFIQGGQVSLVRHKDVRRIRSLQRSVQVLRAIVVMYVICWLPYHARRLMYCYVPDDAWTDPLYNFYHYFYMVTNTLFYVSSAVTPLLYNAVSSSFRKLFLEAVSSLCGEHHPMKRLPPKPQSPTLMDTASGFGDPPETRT

348 GPCRs [3] = molecular target: T2, 348 GPCRs (Homo sapiens, UniProt Q9NS67); conditions: 10µM, Favipiravir 100μM
T2 construct: expressed in transfected cells; host or cells: HEK293A
T2 sequence (Q9NS67 whole entry): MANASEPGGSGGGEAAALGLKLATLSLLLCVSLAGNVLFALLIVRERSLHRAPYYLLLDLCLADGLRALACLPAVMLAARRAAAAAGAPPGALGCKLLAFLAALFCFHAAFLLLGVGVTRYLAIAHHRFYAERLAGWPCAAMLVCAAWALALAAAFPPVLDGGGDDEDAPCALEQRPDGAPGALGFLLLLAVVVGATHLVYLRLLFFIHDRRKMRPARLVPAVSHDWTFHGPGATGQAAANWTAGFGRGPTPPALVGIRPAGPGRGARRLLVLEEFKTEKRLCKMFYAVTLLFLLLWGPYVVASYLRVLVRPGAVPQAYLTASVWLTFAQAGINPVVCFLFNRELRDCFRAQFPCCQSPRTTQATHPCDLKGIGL

348 GPCRs [4] = molecular target: T3, 348 GPCRs (Homo sapiens, UniProt O95838); conditions: 10µM, Favipiravir 100μM
T3 construct: expressed in transfected cells; host or cells: HEK293A
T3 sequence (O95838 1-553): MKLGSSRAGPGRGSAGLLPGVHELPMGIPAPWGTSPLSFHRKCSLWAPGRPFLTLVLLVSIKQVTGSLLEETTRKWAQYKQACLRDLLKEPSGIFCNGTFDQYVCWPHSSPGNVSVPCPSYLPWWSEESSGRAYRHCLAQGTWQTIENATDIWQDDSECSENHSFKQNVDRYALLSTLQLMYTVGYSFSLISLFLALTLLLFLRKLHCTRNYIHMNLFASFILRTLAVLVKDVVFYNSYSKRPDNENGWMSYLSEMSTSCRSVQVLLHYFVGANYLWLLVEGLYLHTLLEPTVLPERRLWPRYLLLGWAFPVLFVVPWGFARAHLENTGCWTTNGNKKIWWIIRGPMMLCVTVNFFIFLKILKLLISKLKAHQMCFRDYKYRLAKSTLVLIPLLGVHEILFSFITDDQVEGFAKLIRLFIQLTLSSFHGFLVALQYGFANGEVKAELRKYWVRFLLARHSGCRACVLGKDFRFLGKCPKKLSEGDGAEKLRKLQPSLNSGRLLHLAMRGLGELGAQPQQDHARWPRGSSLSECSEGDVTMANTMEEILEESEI

348 GPCRs [5] = molecular target: T4, 348 GPCRs (Homo sapiens, UniProt P34972); conditions: 10µM, Favipiravir 100μM
T4 construct: expressed in transfected cells; host or cells: HEK293A
T4 sequence (P34972 whole entry): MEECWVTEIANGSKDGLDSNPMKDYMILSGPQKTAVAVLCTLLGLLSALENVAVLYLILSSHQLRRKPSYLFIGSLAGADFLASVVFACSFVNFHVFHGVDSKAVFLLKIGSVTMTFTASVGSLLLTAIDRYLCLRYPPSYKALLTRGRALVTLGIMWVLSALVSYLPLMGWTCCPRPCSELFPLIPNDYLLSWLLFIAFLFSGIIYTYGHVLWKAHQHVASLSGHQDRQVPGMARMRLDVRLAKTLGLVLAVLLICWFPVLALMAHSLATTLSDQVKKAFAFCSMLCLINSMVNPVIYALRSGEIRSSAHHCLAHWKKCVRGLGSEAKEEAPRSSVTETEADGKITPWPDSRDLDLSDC

348 GPCRs [6] = molecular target: T5, 348 GPCRs (Homo sapiens, UniProt P46092); conditions: 10µM, Favipiravir 100μM
T5 construct: expressed in transfected cells; host or cells: HEK293A
T5 sequence (P46092 1-362): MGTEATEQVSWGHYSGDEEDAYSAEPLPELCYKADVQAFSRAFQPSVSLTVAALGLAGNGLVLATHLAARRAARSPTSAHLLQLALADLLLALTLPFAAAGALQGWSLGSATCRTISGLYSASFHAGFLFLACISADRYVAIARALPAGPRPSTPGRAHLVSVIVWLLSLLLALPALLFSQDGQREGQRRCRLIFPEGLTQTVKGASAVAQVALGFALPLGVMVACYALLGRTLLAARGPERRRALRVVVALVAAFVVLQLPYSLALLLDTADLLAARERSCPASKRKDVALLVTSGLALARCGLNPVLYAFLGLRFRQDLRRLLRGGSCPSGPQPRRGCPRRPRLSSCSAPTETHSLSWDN

348 GPCRs [7] = molecular target: T6, 348 GPCRs (Homo sapiens, UniProt Q99527); conditions: 10µM, Favipiravir 100μM
T6 construct: expressed in transfected cells; host or cells: HEK293A
T6 sequence (Q99527 whole entry): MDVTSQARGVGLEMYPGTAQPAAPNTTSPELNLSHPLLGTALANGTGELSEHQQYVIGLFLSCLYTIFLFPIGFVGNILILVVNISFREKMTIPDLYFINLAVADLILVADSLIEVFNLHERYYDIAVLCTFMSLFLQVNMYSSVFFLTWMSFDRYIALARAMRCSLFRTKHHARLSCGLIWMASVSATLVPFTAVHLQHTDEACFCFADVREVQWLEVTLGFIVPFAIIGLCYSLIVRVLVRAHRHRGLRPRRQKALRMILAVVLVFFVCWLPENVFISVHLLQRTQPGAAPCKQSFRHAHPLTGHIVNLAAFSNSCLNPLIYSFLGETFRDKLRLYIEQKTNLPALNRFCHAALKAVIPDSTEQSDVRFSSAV

348 GPCRs [8] = molecular target: 348 GPCRs (Homo sapiens, UniProt P28566); conditions: 5-HT1E (5-hydroxytryptamine receptor 1E); 10µM, Favipiravir 100μM
Chain of 348 GPCRs (Homo sapiens, UniProt P28566) (P28566 whole entry): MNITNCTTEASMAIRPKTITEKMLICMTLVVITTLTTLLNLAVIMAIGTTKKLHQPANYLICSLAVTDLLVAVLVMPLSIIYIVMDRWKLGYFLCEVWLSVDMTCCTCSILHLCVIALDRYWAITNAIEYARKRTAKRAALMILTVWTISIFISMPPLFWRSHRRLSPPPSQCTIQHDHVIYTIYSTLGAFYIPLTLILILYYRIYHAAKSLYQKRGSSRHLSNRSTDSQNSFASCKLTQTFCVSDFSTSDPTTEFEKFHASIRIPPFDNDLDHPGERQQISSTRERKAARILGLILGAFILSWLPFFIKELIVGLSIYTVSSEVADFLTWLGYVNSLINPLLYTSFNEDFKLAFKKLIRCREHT

348 GPCRs [9] = molecular target: T7, 348 GPCRs (Homo sapiens, UniProt Q15077)
T7 construct: expressed in transfected cells; host or cells: HEK293A
T7 sequence (Q15077 whole entry): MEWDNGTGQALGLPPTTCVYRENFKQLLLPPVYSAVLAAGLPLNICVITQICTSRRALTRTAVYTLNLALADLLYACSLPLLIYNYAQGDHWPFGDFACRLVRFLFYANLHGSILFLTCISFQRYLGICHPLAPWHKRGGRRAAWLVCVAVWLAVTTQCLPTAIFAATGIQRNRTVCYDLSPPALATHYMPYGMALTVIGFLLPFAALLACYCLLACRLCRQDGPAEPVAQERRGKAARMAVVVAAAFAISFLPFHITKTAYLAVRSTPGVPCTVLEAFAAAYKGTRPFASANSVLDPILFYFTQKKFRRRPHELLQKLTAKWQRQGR

348 GPCRs [10] = molecular target: T8, 348 GPCRs (Homo sapiens, UniProt Q9NYW2); conditions: 10µM, Favipiravir 100μM
T8 construct: expressed in transfected cells; host or cells: HEK293A
T8 sequence (Q9NYW2 1-309): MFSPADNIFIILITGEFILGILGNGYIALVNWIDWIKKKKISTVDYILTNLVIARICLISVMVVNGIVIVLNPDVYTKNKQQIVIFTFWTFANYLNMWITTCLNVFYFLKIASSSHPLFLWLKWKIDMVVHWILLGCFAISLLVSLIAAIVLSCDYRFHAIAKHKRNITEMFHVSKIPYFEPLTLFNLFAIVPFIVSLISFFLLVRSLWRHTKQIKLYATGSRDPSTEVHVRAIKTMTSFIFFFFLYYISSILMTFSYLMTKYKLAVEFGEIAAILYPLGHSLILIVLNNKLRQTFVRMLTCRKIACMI

348 GPCRs [11] = molecular target: T9, 348 GPCRs (Homo sapiens, UniProt P30559)
T9 construct: expressed in transfected cells; host or cells: HEK293A
T9 sequence (P30559 1-389): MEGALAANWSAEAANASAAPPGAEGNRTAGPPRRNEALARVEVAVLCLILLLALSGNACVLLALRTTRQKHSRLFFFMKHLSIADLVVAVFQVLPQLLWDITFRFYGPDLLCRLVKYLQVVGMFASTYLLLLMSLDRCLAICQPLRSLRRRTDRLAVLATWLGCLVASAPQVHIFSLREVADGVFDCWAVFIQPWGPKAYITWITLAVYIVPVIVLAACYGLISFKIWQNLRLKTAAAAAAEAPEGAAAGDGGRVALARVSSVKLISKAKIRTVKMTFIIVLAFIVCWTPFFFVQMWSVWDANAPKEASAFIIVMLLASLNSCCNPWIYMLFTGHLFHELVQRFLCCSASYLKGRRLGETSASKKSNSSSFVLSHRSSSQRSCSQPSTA

[12] = GPCR P2Y12 (purinergic receptor P2Y, G-protein coupled, 12), read-out: % GPCR activation compared to TPA
[13] = GPR27 (G Protein-Coupled Receptor 27), read-out: % GPCR activation compared to TPA
[14] = GLP2R (glucagon like peptide 2 receptor), read-out: % GPCR activation compared to TPA
[15] = CB2 (cannabinoid receptor 2), read-out: % GPCR activation compared to TPA
[16] = CCR10 (C-C motif chemokine receptor 10), read-out: % GPCR activation compared to TPA
[17] = GPER (G protein-coupled estrogen receptor 1), read-out: % GPCR activation compared to TPA
[18] = GPCR P2Y6 (pyrimidinergic receptor P2Y, G-protein coupled, 6), read-out: % GPCR activation compared to TPA
[19] = TAS2R8 (taste receptor, type 2, member 8), read-out: % GPCR activation compared to TPA
[20] = GPCR OXTR (oxytocin Receptor), read-out: % GPCR activation compared to TPA
[21] = read-out: % GPCR activation compared to TPA, GPCR P2Y12 (purinergic receptor P2Y, G-protein coupled, 12)
[22] = read-out: % GPCR activation compared to TPA, GPR27 (G Protein-Coupled Receptor 27)
[23] = read-out: % GPCR activation compared to TPA, GLP2R (glucagon like peptide 2 receptor)
[24] = read-out: % GPCR activation compared to TPA, CB2 (cannabinoid receptor 2)
[25] = read-out: % GPCR activation compared to TPA, CCR10 (C-C motif chemokine receptor 10)
[26] = read-out: % GPCR activation compared to TPA, GPER (G protein-coupled estrogen receptor 1)
[27] = read-out: % GPCR activation compared to TPA, GPCR P2Y6 (pyrimidinergic receptor P2Y, G-protein coupled, 6)
[28] = read-out: % GPCR activation compared to TPA, TAS2R8 (taste receptor, type 2, member 8)
[29] = read-out: % GPCR activation compared to TPA, GPCR OXTR (oxytocin Receptor)

T1 sequence (Q9H244 whole entry): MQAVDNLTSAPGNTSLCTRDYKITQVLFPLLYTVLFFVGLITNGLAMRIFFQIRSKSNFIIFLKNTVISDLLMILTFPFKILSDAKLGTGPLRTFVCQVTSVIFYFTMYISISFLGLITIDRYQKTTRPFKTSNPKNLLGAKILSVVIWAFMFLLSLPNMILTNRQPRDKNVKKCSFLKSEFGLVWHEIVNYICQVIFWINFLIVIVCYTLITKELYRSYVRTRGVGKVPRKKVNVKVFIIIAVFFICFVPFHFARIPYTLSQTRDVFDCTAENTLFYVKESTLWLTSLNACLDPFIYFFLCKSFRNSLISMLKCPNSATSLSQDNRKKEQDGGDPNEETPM

Row | Compound | activation at 10 µM (348 GPCRs [1]; [12]) | % GPCR activation compared to TPA (348 GPCRs [2]) | activation at 100 µM (348 GPCRs [3]; [13]) | activation at 10 µM (348 GPCRs [4]; [14]) | activation at 100 µM (348 GPCRs [5]; [15]) | activation at 100 µM (348 GPCRs [6]; [16]) | activation at 10 µM (348 GPCRs [7]; [17]) | % GPCR activation compared to TPA (348 GPCRs [8]) | activation at 10 µM (348 GPCRs [9]; [18]) | activation at 10 µM (348 GPCRs [10]; [19]) | activation at 10 µM (348 GPCRs [11]; [20]) | activation at 10 µM (348 GPCRs [1]; [21]) | activation at 100 µM (348 GPCRs [3]; [22]) | activation at 10 µM (348 GPCRs [4]; [23]) | activation at 100 µM (348 GPCRs [5]; [24]) | activation at 100 µM (348 GPCRs [6]; [25]) | activation at 10 µM (348 GPCRs [7]; [26]) | activation at 10 µM (348 GPCRs [9]; [27]) | activation at 10 µM (348 GPCRs [10]; [28]) | activation at 10 µM (348 GPCRs [11]; [29]) | also measured
1 | N#C[C@@]1(c2ccc3c(N)ncnn23)O[C@H](CO)[C@@H](O)[C@H]1O [GS441524] | -4.31% | 1.005% | 1.65% | 1.04% | -0.772% | -6.97% | -3.06% | -1.385% | -8.65% | 0.391% | -1.2% | – | – | – | – | – | – | – | – | – | –
2 | CCC(CC)COC(=O)[C@H](C)N[P@](=O)(OC[C@H]1O[C@@](C#N)(c2ccc3c(N)ncnn23)[C@H](O)[C@@H]1O)Oc1ccccc1 [remdesivir] | – | -1.859% | – | – | – | – | – | -0.07183% | – | – | – | 0.718% | 0.0845% | 1.76% | -0.086% | -7.76% | 1.6% | 1.18% | 0.189% | 0.33% | –
3 | CC(C)OC(=O)[C@H](C)N[P@](=O)(OC[C@H]1O[C@@H](n2ccc(=O)[nH]c2=O)[C@](C)(F)[C@@H]1O)Oc1ccccc1 [sofosbuvir] | – | 0.2553% | – | – | – | – | – | -1.207% | – | – | – | -2.59% | 1.94% | -0.662% | -2.78% | 0.131% | -0.815% | -26.6% | 0.759% | -3.36% | –

Continued, in another order:

Row | activation at 10 µM (348 GPCRs [1]; [12]) | % GPCR activation compared to TPA (348 GPCRs [2]) | activation at 100 µM (348 GPCRs [3]; [13]) | activation at 10 µM (348 GPCRs [4]; [14]) | activation at 100 µM (348 GPCRs [5]; [15]) | activation at 100 µM (348 GPCRs [6]; [16]) | activation at 10 µM (348 GPCRs [7]; [17]) | % GPCR activation compared to TPA (348 GPCRs [8]) | activation at 10 µM (348 GPCRs [9]; [18]) | activation at 10 µM (348 GPCRs [10]; [19]) | activation at 10 µM (348 GPCRs [11]; [20]) | Compound | activation at 10 µM (348 GPCRs [1]; [21]) | activation at 100 µM (348 GPCRs [3]; [22]) | activation at 10 µM (348 GPCRs [4]; [23]) | activation at 100 µM (348 GPCRs [5]; [24]) | activation at 100 µM (348 GPCRs [6]; [25]) | activation at 10 µM (348 GPCRs [7]; [26]) | activation at 10 µM (348 GPCRs [9]; [27]) | activation at 10 µM (348 GPCRs [10]; [28]) | activation at 10 µM (348 GPCRs [11]; [29]) | also measured
4 | – | -3.411% | -0.296% | 2.97% | 1.24% | -6.03% | -2.76% | 0.5554% | – | -0.549% | – | NC(=O)c1nc(F)cnc1O [favipiravir, 6-fluoro-3-hydroxy-2-pyrazinecarboxamide] | – | – | – | – | – | – | – | – | – | activation at 100 µM (348 GPCRs [1]; GPCR P2Y12 (purinergic receptor P2Y, G-protein coupled, 12), 100μM, read-out: % GPCR activation compared to TPA): -4.09%; activation at 100 µM (348 GPCRs [9]; GPCR P2Y6 (pyrimidinergic receptor P2Y, G-protein coupled, 6), 100μM, read-out: % GPCR activation compared to TPA): -0.384%; activation at 100 µM (348 GPCRs [11]; GPCR OXTR (oxytocin Receptor), 100μM, read-out: % GPCR activation compared to TPA): -0.726%
5 | -6.75% | 0.1275% | -0.612% | 0.598% | -1.91% | 0.0221% | -1.26% | -0.994% | -17.8% | -0.417% | -2.8% | CC(C)C(=O)OC[C@H]1O[C@@H](n2ccc(NO)nc2=O)[C@H](O)[C@@H]1O [molnupiravir] | – | – | – | – | – | – | – | – | – | –
